Laboratory results published in the NIST ThermoML archive (doi:10.1016/j.jct.2012.03.003).

Experiment: xn = mol fraction of the nth substance listed
Conditions: Liquid, Vibrating tube method

COc1cc2c(cc1O)CC1c3c(cc(O)c(OC)c3-2)CCN1C (stereo not given) [boldine] + CCO
Conditions	mass density [kg/m3]
313.01 K, 1000 kPa, x1 = 0.0196	817.64
313.01 K, 2000 kPa, x1 = 0.0196	818.47
313.01 K, 3000 kPa, x1 = 0.0196	819.29
313.01 K, 4000 kPa, x1 = 0.0196	820.13
313.01 K, 5000 kPa, x1 = 0.0196	820.98
313.01 K, 6000 kPa, x1 = 0.0196	821.82
313.01 K, 7000 kPa, x1 = 0.0196	822.67
313.01 K, 8000 kPa, x1 = 0.0196	823.53
313.01 K, 9000 kPa, x1 = 0.0196	824.37
313.01 K, 10000 kPa, x1 = 0.0196	825.22
313.01 K, 11000 kPa, x1 = 0.0196	826.07
313.01 K, 12000 kPa, x1 = 0.0196	826.9
313.01 K, 13000 kPa, x1 = 0.0196	827.74
313.01 K, 14000 kPa, x1 = 0.0196	828.55
313.01 K, 15000 kPa, x1 = 0.0196	829.36
313.01 K, 16000 kPa, x1 = 0.0196	830.17
313.01 K, 17000 kPa, x1 = 0.0196	830.96
313.01 K, 18000 kPa, x1 = 0.0196	831.74
313.01 K, 19000 kPa, x1 = 0.0196	832.5
313.01 K, 20000 kPa, x1 = 0.0196	833.23
313.09 K, 1000 kPa, x1 = 0.0012	775.75
313.09 K, 1000 kPa, x1 = 0.0267	829.8
313.09 K, 2000 kPa, x1 = 0.0012	776.61
313.09 K, 2000 kPa, x1 = 0.0267	830.62
313.09 K, 3000 kPa, x1 = 0.0012	777.49
313.09 K, 3000 kPa, x1 = 0.0267	831.43
313.09 K, 4000 kPa, x1 = 0.0012	778.37
313.09 K, 4000 kPa, x1 = 0.0267	832.27
313.09 K, 5000 kPa, x1 = 0.0012	779.27
313.09 K, 5000 kPa, x1 = 0.0267	833.1
313.09 K, 6000 kPa, x1 = 0.0012	780.17
313.09 K, 6000 kPa, x1 = 0.0267	833.94
313.09 K, 7000 kPa, x1 = 0.0012	781.08
313.09 K, 7000 kPa, x1 = 0.0267	834.77
313.09 K, 8000 kPa, x1 = 0.0012	781.99
313.09 K, 8000 kPa, x1 = 0.0267	835.61
313.09 K, 9000 kPa, x1 = 0.0012	782.89
313.09 K, 9000 kPa, x1 = 0.0267	836.46
313.09 K, 10000 kPa, x1 = 0.0012	783.79
313.09 K, 10000 kPa, x1 = 0.0267	837.26
313.09 K, 11000 kPa, x1 = 0.0012	784.7
313.09 K, 11000 kPa, x1 = 0.0267	838.09
313.09 K, 12000 kPa, x1 = 0.0012	785.59
313.09 K, 12000 kPa, x1 = 0.0267	838.91
313.09 K, 13000 kPa, x1 = 0.0012	786.48
313.09 K, 13000 kPa, x1 = 0.0267	839.73
313.09 K, 14000 kPa, x1 = 0.0012	787.35
313.09 K, 14000 kPa, x1 = 0.0267	840.53
313.09 K, 15000 kPa, x1 = 0.0012	788.21
313.09 K, 15000 kPa, x1 = 0.0267	841.33
313.09 K, 16000 kPa, x1 = 0.0012	789.07
313.09 K, 16000 kPa, x1 = 0.0267	842.12
313.09 K, 17000 kPa, x1 = 0.0012	789.89
313.09 K, 17000 kPa, x1 = 0.0267	842.89
313.09 K, 18000 kPa, x1 = 0.0012	790.71
313.09 K, 18000 kPa, x1 = 0.0267	843.66
313.09 K, 19000 kPa, x1 = 0.0012	791.52
313.09 K, 19000 kPa, x1 = 0.0267	844.41
313.09 K, 20000 kPa, x1 = 0.0012	792.31
313.09 K, 20000 kPa, x1 = 0.0267	845.14
313.1 K, 1000 kPa, x1 = 0.0074	788.76
313.1 K, 2000 kPa, x1 = 0.0074	789.61
313.1 K, 3000 kPa, x1 = 0.0074	790.46
313.1 K, 4000 kPa, x1 = 0.0074	791.34
313.1 K, 5000 kPa, x1 = 0.0074	792.21
313.1 K, 6000 kPa, x1 = 0.0074	793.1
313.1 K, 7000 kPa, x1 = 0.0074	793.98
313.1 K, 8000 kPa, x1 = 0.0074	794.88
313.1 K, 9000 kPa, x1 = 0.0074	795.77
313.1 K, 10000 kPa, x1 = 0.0074	796.66
313.1 K, 11000 kPa, x1 = 0.0074	797.53
313.1 K, 12000 kPa, x1 = 0.0074	798.41
313.1 K, 13000 kPa, x1 = 0.0074	799.28
313.1 K, 14000 kPa, x1 = 0.0074	800.14
313.1 K, 15000 kPa, x1 = 0.0074	800.98
313.1 K, 16000 kPa, x1 = 0.0074	801.81
313.1 K, 17000 kPa, x1 = 0.0074	802.63
313.1 K, 18000 kPa, x1 = 0.0074	803.44
313.1 K, 19000 kPa, x1 = 0.0074	804.23
313.1 K, 20000 kPa, x1 = 0.0074	805
313.13 K, 1000 kPa, x1 = 0.0136	801.85
313.13 K, 2000 kPa, x1 = 0.0136	802.69
313.13 K, 3000 kPa, x1 = 0.0136	803.55
313.13 K, 4000 kPa, x1 = 0.0136	804.42
313.13 K, 5000 kPa, x1 = 0.0136	805.28
313.13 K, 6000 kPa, x1 = 0.0136	806.15
313.13 K, 7000 kPa, x1 = 0.0136	807.04
313.13 K, 8000 kPa, x1 = 0.0136	807.92
313.13 K, 9000 kPa, x1 = 0.0136	808.79
313.13 K, 10000 kPa, x1 = 0.0136	809.66
313.13 K, 11000 kPa, x1 = 0.0136	810.53
313.13 K, 12000 kPa, x1 = 0.0136	811.4
313.13 K, 13000 kPa, x1 = 0.0136	812.25
313.13 K, 14000 kPa, x1 = 0.0136	813.1
313.13 K, 15000 kPa, x1 = 0.0136	813.94
313.13 K, 16000 kPa, x1 = 0.0136	814.77
313.13 K, 17000 kPa, x1 = 0.0136	815.58
313.13 K, 18000 kPa, x1 = 0.0136	816.37
313.13 K, 19000 kPa, x1 = 0.0136	817.16
313.13 K, 20000 kPa, x1 = 0.0136	817.92
323.03 K, 1000 kPa, x1 = 0.0012	766.88
323.03 K, 2000 kPa, x1 = 0.0012	767.82
323.03 K, 3000 kPa, x1 = 0.0012	768.76
323.03 K, 4000 kPa, x1 = 0.0012	769.71
323.03 K, 5000 kPa, x1 = 0.0012	770.66
323.03 K, 6000 kPa, x1 = 0.0012	771.62
323.03 K, 7000 kPa, x1 = 0.0012	772.58
323.03 K, 8000 kPa, x1 = 0.0012	773.53
323.03 K, 9000 kPa, x1 = 0.0012	774.49
323.03 K, 10000 kPa, x1 = 0.0012	775.44
323.03 K, 11000 kPa, x1 = 0.0012	776.38
323.03 K, 12000 kPa, x1 = 0.0012	777.32
323.03 K, 13000 kPa, x1 = 0.0012	778.24
323.03 K, 14000 kPa, x1 = 0.0012	779.15
323.03 K, 15000 kPa, x1 = 0.0012	780.06
323.03 K, 16000 kPa, x1 = 0.0012	780.94
323.03 K, 17000 kPa, x1 = 0.0012	781.82
323.03 K, 18000 kPa, x1 = 0.0012	782.68
323.03 K, 19000 kPa, x1 = 0.0012	783.53
323.03 K, 20000 kPa, x1 = 0.0012	784.35
323.04 K, 1000 kPa, x1 = 0.0074	779.9
323.04 K, 1000 kPa, x1 = 0.0196	808.75
323.04 K, 2000 kPa, x1 = 0.0074	780.82
323.04 K, 2000 kPa, x1 = 0.0196	809.64
323.04 K, 3000 kPa, x1 = 0.0074	781.75
323.04 K, 3000 kPa, x1 = 0.0196	810.53
323.04 K, 4000 kPa, x1 = 0.0074	782.68
323.04 K, 4000 kPa, x1 = 0.0196	811.42
323.04 K, 5000 kPa, x1 = 0.0074	783.61
323.04 K, 5000 kPa, x1 = 0.0196	812.32
323.04 K, 6000 kPa, x1 = 0.0074	784.55
323.04 K, 6000 kPa, x1 = 0.0196	813.21
323.04 K, 7000 kPa, x1 = 0.0074	785.48
323.04 K, 7000 kPa, x1 = 0.0196	814.12
323.04 K, 8000 kPa, x1 = 0.0074	786.42
323.04 K, 8000 kPa, x1 = 0.0196	815.02
323.04 K, 9000 kPa, x1 = 0.0074	787.36
323.04 K, 9000 kPa, x1 = 0.0196	815.91
323.04 K, 10000 kPa, x1 = 0.0074	788.29
323.04 K, 10000 kPa, x1 = 0.0196	816.8
323.04 K, 11000 kPa, x1 = 0.0074	789.22
323.04 K, 11000 kPa, x1 = 0.0196	817.69
323.04 K, 12000 kPa, x1 = 0.0074	790.13
323.04 K, 12000 kPa, x1 = 0.0196	818.56
323.04 K, 13000 kPa, x1 = 0.0074	791.03
323.04 K, 13000 kPa, x1 = 0.0196	819.44
323.04 K, 14000 kPa, x1 = 0.0074	791.94
323.04 K, 14000 kPa, x1 = 0.0196	820.29
323.04 K, 15000 kPa, x1 = 0.0074	792.82
323.04 K, 15000 kPa, x1 = 0.0196	821.15
